From publication PMC4775085 (ACS chemical neuroscience, 2015)
pIC50: −log10 of the molar value. “And” between values parts separate entries of the source, which are not always exact repeats. Identical values can stand only once.

What was measured:
[1] = tested on: acetylated histone 3 in N2a cells; experiment: Acetylated histone 3/histone 4 ratio in N2a cells by Western blot; type: cell-based, mouse; conditions: overnight, vehicle = 1.00
[2] = target: HDAC5 (Homo sapiens, UniProt Q9UQL6); experiment: HDAC5 enzymatic inhibition assay
Chain of HDAC5 (Q9UQL6 whole entry): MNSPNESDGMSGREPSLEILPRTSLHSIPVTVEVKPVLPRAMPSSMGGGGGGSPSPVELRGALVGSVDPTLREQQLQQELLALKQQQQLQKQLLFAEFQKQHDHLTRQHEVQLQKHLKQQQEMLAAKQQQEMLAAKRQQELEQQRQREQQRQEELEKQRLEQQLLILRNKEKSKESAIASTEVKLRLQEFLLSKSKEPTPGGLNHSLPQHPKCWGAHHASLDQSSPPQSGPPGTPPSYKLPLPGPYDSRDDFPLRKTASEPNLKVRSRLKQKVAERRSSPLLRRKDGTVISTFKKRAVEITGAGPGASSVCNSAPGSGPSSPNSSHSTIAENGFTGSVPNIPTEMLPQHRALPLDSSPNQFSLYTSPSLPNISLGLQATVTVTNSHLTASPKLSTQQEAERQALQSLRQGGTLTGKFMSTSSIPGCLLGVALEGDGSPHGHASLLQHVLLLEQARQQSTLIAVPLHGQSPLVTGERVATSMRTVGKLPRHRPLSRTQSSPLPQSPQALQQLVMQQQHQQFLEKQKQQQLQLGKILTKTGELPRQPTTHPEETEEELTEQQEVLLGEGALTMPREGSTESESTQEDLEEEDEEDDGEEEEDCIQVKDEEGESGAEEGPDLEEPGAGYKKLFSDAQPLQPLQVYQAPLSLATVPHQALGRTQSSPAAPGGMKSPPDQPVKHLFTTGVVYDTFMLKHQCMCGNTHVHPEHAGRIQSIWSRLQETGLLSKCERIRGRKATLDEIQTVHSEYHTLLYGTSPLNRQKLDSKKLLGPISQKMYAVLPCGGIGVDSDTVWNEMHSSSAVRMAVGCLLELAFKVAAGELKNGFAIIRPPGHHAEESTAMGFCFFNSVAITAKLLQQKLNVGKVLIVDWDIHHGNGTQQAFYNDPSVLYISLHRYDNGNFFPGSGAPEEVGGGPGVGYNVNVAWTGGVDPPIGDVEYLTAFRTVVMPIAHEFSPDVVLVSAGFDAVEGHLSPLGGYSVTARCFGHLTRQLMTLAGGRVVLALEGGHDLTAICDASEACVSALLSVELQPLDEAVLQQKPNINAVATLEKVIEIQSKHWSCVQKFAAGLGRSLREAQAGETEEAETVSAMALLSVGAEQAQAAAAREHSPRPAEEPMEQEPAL

[3] = target: T1, HDAC10 (Homo sapiens, UniProt Q969S8); experiment: HDAC10 enzymatic inhibition assay
T1 sequence (Q969S8 1-669): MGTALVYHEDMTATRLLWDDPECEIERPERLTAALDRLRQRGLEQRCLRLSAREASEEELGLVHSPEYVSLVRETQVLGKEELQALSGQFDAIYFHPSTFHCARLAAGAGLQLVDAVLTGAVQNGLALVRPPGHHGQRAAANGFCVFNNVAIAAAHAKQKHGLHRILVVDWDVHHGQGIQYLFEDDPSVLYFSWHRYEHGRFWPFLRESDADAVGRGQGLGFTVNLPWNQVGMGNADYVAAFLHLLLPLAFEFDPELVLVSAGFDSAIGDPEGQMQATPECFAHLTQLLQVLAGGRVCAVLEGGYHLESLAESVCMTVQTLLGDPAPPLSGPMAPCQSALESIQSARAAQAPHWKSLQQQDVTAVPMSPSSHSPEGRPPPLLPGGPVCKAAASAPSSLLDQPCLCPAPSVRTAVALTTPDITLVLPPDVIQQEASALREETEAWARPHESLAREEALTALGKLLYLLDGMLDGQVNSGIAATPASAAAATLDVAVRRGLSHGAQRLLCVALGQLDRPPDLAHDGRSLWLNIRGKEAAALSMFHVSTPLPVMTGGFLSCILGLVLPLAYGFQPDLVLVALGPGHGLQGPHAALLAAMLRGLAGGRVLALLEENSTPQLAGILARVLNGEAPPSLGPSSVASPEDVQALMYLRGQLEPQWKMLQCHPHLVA

[4] = target: T2, HDAC6 (Homo sapiens, UniProt Q9UBN7); experiment: HDAC6 enzymatic inhibition assay; type: biochemical
T2 sequence (Q9UBN7 1-1215): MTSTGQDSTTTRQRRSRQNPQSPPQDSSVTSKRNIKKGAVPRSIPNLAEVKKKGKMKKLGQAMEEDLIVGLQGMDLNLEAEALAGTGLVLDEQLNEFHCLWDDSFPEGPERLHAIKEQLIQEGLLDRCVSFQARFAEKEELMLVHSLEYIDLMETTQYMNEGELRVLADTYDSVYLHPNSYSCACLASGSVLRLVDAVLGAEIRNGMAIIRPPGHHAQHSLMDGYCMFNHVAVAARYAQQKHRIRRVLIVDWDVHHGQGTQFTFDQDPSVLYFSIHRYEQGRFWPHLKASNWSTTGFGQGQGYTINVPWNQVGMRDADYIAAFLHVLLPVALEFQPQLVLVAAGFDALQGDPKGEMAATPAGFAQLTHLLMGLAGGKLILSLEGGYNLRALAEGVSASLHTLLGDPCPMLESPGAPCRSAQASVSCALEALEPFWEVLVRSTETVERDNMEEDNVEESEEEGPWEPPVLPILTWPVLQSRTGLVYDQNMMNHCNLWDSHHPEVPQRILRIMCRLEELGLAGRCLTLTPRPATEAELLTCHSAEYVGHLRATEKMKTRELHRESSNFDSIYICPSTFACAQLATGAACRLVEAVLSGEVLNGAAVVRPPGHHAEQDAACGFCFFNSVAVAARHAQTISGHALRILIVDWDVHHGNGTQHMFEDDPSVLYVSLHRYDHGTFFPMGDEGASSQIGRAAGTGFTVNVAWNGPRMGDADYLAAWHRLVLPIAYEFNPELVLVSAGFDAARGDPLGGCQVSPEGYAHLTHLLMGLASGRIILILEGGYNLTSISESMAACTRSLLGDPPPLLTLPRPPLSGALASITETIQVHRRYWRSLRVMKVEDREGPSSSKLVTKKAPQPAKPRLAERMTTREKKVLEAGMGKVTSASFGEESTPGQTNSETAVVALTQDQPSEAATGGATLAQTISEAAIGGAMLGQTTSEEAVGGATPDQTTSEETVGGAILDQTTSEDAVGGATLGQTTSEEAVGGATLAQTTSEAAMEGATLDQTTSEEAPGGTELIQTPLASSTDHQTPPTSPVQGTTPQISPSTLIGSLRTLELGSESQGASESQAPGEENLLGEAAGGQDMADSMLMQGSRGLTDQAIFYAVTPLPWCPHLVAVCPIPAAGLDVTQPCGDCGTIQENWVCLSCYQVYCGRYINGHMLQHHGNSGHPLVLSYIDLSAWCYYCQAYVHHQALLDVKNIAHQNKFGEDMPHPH

[5] = target: HDAC4 (Homo sapiens, UniProt P56524); experiment: HDAC4 enzymatic inhibition assay
Chain of HDAC4 (P56524 whole entry): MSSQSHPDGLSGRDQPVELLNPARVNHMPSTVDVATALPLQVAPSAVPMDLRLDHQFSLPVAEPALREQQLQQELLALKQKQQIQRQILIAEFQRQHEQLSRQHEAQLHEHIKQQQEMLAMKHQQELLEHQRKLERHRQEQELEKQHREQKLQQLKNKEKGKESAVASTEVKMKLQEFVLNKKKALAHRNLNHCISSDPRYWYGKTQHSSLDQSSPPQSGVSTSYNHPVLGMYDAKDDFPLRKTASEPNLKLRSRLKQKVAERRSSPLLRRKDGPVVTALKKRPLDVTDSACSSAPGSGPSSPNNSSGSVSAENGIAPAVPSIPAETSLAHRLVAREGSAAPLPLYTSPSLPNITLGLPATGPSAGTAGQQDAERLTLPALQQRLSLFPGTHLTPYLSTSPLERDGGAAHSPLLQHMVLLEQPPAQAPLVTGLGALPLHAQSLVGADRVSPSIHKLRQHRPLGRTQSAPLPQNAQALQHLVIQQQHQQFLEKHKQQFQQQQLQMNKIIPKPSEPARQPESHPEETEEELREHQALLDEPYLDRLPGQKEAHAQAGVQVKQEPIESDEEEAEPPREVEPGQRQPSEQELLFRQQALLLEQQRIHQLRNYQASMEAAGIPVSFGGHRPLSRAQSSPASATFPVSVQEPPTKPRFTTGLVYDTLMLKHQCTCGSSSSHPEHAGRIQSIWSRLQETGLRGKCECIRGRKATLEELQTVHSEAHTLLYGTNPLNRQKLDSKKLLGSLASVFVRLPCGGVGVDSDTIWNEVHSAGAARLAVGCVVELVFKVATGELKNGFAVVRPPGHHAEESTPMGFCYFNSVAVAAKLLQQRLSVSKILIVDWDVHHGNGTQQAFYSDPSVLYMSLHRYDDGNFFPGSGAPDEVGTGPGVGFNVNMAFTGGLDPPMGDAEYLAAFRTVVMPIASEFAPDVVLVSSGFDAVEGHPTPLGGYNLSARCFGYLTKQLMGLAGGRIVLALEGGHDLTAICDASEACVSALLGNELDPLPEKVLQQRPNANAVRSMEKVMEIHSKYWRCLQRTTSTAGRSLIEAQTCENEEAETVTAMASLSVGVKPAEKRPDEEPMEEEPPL

[6] = target: HDAC9 (Homo sapiens, UniProt Q9UKV0); experiment: HDAC9 enzymatic inhibition assay
Chain of HDAC9 (Q9UKV0 whole entry): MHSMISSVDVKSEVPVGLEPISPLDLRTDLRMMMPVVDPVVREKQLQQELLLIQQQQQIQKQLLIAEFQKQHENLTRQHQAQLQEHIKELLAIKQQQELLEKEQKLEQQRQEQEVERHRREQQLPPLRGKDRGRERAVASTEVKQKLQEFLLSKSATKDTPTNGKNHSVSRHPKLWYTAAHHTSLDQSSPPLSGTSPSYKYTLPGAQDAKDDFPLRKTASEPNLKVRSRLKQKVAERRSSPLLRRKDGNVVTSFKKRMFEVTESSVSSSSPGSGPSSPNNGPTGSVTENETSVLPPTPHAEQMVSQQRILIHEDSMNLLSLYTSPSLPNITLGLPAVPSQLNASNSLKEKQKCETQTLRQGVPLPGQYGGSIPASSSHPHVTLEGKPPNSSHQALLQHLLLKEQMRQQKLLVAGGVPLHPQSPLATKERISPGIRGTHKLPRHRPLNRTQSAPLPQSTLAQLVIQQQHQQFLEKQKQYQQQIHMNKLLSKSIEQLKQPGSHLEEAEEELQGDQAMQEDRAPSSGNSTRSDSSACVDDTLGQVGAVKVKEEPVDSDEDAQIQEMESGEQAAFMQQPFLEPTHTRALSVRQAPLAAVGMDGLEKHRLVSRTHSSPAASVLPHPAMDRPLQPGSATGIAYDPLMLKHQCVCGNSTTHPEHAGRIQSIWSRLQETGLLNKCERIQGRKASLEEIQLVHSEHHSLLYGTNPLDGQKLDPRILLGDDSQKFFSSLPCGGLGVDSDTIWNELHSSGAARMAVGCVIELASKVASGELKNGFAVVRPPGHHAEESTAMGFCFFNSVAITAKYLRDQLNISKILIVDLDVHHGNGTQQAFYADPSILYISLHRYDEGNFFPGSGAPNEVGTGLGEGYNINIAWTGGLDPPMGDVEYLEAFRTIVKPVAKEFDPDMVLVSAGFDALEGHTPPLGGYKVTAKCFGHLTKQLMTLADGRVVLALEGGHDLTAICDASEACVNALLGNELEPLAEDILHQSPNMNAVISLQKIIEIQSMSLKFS

[7] = target: T3, HDAC11 (Homo sapiens, UniProt Q96DB2); experiment: HDAC11 enzymatic inhibition assay
T3 sequence (Q96DB2 1-347): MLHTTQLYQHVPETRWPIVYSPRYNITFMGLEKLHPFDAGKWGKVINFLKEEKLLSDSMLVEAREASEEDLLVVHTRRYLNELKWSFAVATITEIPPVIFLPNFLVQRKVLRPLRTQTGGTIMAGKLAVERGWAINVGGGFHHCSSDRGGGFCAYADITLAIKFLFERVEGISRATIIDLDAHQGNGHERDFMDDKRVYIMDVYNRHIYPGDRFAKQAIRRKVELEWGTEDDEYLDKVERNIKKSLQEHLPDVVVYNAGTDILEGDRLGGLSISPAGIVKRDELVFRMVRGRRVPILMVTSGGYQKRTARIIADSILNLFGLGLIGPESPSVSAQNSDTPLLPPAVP

Q: For Cc1nc2ccc(F)cc2n1Cc1ccc(C(=O)NO)cc1 [30a, 4-[(6-Fluoro-2-methyl-1-benzimidazolyl)methyl]-N-hydroxybenzamide], which “ratio acetylated H3/H4 (1 μM) mean” value [1] is on record?
A: Its value is “did not alter the acetylation of histone 3”.

Q: What about the pIC50 [2] of the same compound?
A: The pIC50 was 6.40.

Q: And the pIC50 [3]?
A: Its pIC50 is 4.93.

Q: What about the pIC50 ([4]; HDAC6 IC50, singlet 10-dose IC50 mode, 3-fold serial dilution starting at 1 μM) of the same compound?
A: Its pIC50 is 8.51.

Q: What about the IC50 ([4]; IC50 (nM) HDAC6, mean of two experiments ± standard deviation, 10-point enzymatic assay starting from 30 μM, 3-fold serial dilution) of the same compound?
A: Its IC50 is 5 nM and 5.2 nM.

Q: And the “Selectivity HDAC1/HDAC6” value ([4]; ratio of HDAC1 and HDAC6 IC50 of Table 1 (fold))?
A: Its value is 562.

Q: What about the pIC50 [5] of the same compound?
A: Its pIC50 is 5.84.

Q: And the pIC50 [6]?
A: Its pIC50 is 6.33.

Q: What about the pIC50 [7] of the same compound?
A: Its pIC50 is 5.13.
